In PubChem BioAssay (NCI):
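At the GI50, growth is halved. At the TGI there is no net growth.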

What was measured:
Experiment in all cases: NCI tumour cell line growth inhibition, 384-well format
UACC-62 melanoma = system: UACC-62 melanoma
A549 NSCLC = system: A549 NSCLC
NCI-H460 NSCLC = system: NCI-H460 NSCLC
SN12C renal = system: SN12C renal
SK-MEL-28 melanoma = system: SK-MEL-28 melanoma
CAKI-1 renal = system: CAKI-1 renal
HL-60(TB) leukemia = system: HL-60(TB) leukemia
NCI-H322M lung = system: NCI-H322M lung
KM12 colon = system: KM12 colon
COLO 205 colon = system: COLO 205 colon
NCI-H226 lung = system: NCI-H226 lung
NCI-H23 lung = system: NCI-H23 lung
MALME-3M melanoma = system: MALME-3M melanoma
LOX IMVI melanoma = system: LOX IMVI melanoma
RPMI-8226 leukemia = system: RPMI-8226 leukemia
HCT-15 colon = system: HCT-15 colon
HT29 colon = system: HT29 colon
MDA-MB-231 breast = system: MDA-MB-231 breast
SNB-75 CNS = system: SNB-75 CNS
ACHN renal = system: ACHN renal
MDA-MB-435 melanoma = system: MDA-MB-435 melanoma
OVCAR-4 ovarian = system: OVCAR-4 ovarian
EKVX NSCLC = system: EKVX NSCLC
HOP-62 NSCLC = system: HOP-62 NSCLC
TK-10 renal = system: TK-10 renal
M14 melanoma = system: M14 melanoma
OVCAR-5 ovarian = system: OVCAR-5 ovarian
HOP-92 NSCLC = system: HOP-92 NSCLC
SNB-19 CNS = system: SNB-19 CNS
MOLT-4 leukemia = system: MOLT-4 leukemia
OVCAR-8 ovarian = system: OVCAR-8 ovarian
DU-145 prostate = system: DU-145 prostate
A498 renal = system: A498 renal
NCI-H522 lung = system: NCI-H522 lung
UACC-257 melanoma = system: UACC-257 melanoma
BT-549 breast = system: BT-549 breast
MCF7 breast = system: MCF7 breast
SF-539 CNS = system: SF-539 CNS
OVCAR-3 ovarian = system: OVCAR-3 ovarian
PC-3 prostate = system: PC-3 prostate
SK-OV-3 ovarian = system: SK-OV-3 ovarian
U251 glioblastoma = system: U251 glioblastoma
SF-268 CNS = system: SF-268 CNS
SR leukemia = system: SR leukemia
SK-MEL-5 melanoma = system: SK-MEL-5 melanoma
HS 578T breast = system: HS 578T breast
HCC-2998 colon = system: HCC-2998 colon
HCT-116 colon = system: HCT-116 colon
IGROV1 ovarian = system: IGROV1 ovarian

**Q.** For Nc1nc(Nc2ccc(C3CCC(N4CCOCC4)CC3)cc2)nn1-c1ccccn1 (stereo not drawn), which GI50 (UACC-62 melanoma) is on record?
**A.** 2030 nM

**Q.** And the TGI (UACC-62 melanoma)?
**A.** 4.56 µM

**Q.** And the GI50 (A549 NSCLC)?
**A.** 3.49 µM

**Q.** And the TGI (A549 NSCLC)?
**A.** > 100 µM

**Q.** And the GI50 (NCI-H460 NSCLC)?
**A.** 3.17 µM

**Q.** And the TGI (NCI-H460 NSCLC)?
**A.** 10.7 µM

**Q.** And the GI50 (SN12C renal)?
**A.** 1050 nM

**Q.** And the TGI (SN12C renal)?
**A.** 3.84 µM

**Q.** And the GI50 (SK-MEL-28 melanoma)?
**A.** 1810 nM

**Q.** And the TGI (SK-MEL-28 melanoma)?
**A.** 3.34 µM

**Q.** And the GI50 (CAKI-1 renal)?
**A.** 3.08 µM

**Q.** And the TGI (CAKI-1 renal)?
**A.** > 100 µM

**Q.** And the GI50 (HL-60(TB) leukemia)?
**A.** 1350 nM

**Q.** And the TGI (HL-60(TB) leukemia)?
**A.** 2670 nM

**Q.** What about the GI50 (NCI-H322M lung) of the same compound?
**A.** 4.03 µM

**Q.** And the TGI (NCI-H322M lung)?
**A.** 15 µM

**Q.** And the GI50 (KM12 colon)?
**A.** 291 nM

**Q.** And the TGI (KM12 colon)?
**A.** > 100 µM

**Q.** And the GI50 (COLO 205 colon)?
**A.** 2890 nM

**Q.** And the TGI (COLO 205 colon)?
**A.** 5.83 µM

**Q.** What about the GI50 (NCI-H226 lung) of the same compound?
**A.** 2590 nM

**Q.** What about the TGI (NCI-H226 lung) of the same compound?
**A.** 6.49 µM

**Q.** And the GI50 (NCI-H23 lung)?
**A.** 2770 nM

**Q.** What about the TGI (NCI-H23 lung) of the same compound?
**A.** > 100 µM

**Q.** What about the GI50 (MALME-3M melanoma) of the same compound?
**A.** 1860 nM

**Q.** And the TGI (MALME-3M melanoma)?
**A.** 4.1 µM

**Q.** What about the GI50 (LOX IMVI melanoma) of the same compound?
**A.** 2040 nM

**Q.** What about the TGI (LOX IMVI melanoma) of the same compound?
**A.** 3.63 µM

**Q.** What about the GI50 (RPMI-8226 leukemia) of the same compound?
**A.** 2300 nM

**Q.** What about the TGI (RPMI-8226 leukemia) of the same compound?
**A.** 3.78 µM

**Q.** What about the GI50 (HCT-15 colon) of the same compound?
**A.** 2010 nM

**Q.** And the TGI (HCT-15 colon)?
**A.** 4.14 µM

**Q.** And the GI50 (HT29 colon)?
**A.** 1820 nM

**Q.** What about the TGI (HT29 colon) of the same compound?
**A.** 3.59 µM

**Q.** What about the GI50 (MDA-MB-231 breast) of the same compound?
**A.** 4.56 µM

**Q.** And the TGI (MDA-MB-231 breast)?
**A.** > 100 µM

**Q.** What about the GI50 (SNB-75 CNS) of the same compound?
**A.** 2000 nM

**Q.** What about the TGI (SNB-75 CNS) of the same compound?
**A.** 3.94 µM

**Q.** And the GI50 (ACHN renal)?
**A.** 2840 nM

**Q.** What about the TGI (ACHN renal) of the same compound?
**A.** 7.6 µM

**Q.** And the GI50 (MDA-MB-435 melanoma)?
**A.** 2250 nM

**Q.** And the TGI (MDA-MB-435 melanoma)?
**A.** 6.2 µM

**Q.** And the GI50 (OVCAR-4 ovarian)?
**A.** 7.22 µM

**Q.** And the TGI (OVCAR-4 ovarian)?
**A.** 27.8 µM

**Q.** And the GI50 (EKVX NSCLC)?
**A.** 4.45 µM

**Q.** What about the TGI (EKVX NSCLC) of the same compound?
**A.** > 100 µM

**Q.** What about the GI50 (HOP-62 NSCLC) of the same compound?
**A.** 2580 nM

**Q.** And the TGI (HOP-62 NSCLC)?
**A.** 6.7 µM

**Q.** What about the GI50 (TK-10 renal) of the same compound?
**A.** 5.32 µM

**Q.** And the TGI (TK-10 renal)?
**A.** 24.1 µM

**Q.** And the GI50 (M14 melanoma)?
**A.** 2260 nM

**Q.** And the TGI (M14 melanoma)?
**A.** 3.89 µM

**Q.** And the GI50 (OVCAR-5 ovarian)?
**A.** 2440 nM

**Q.** And the TGI (OVCAR-5 ovarian)?
**A.** 5.19 µM

**Q.** And the GI50 (HOP-92 NSCLC)?
**A.** 4.97 µM

**Q.** And the TGI (HOP-92 NSCLC)?
**A.** 20.4 µM

**Q.** And the GI50 (SNB-19 CNS)?
**A.** 3.68 µM

**Q.** And the TGI (SNB-19 CNS)?
**A.** 16.5 µM

**Q.** And the GI50 (MOLT-4 leukemia)?
**A.** 1760 nM

**Q.** What about the TGI (MOLT-4 leukemia) of the same compound?
**A.** 3.19 µM

**Q.** What about the GI50 (OVCAR-8 ovarian) of the same compound?
**A.** 5.06 µM

**Q.** What about the TGI (OVCAR-8 ovarian) of the same compound?
**A.** > 100 µM

**Q.** And the GI50 (DU-145 prostate)?
**A.** 3.08 µM

**Q.** What about the TGI (DU-145 prostate) of the same compound?
**A.** 8.5 µM

**Q.** And the GI50 (A498 renal)?
**A.** 2570 nM

**Q.** And the TGI (A498 renal)?
**A.** 5.75 µM

**Q.** And the GI50 (NCI-H522 lung)?
**A.** 3.11 µM

**Q.** What about the TGI (NCI-H522 lung) of the same compound?
**A.** 9.08 µM

**Q.** What about the GI50 (UACC-257 melanoma) of the same compound?
**A.** 1830 nM

**Q.** And the TGI (UACC-257 melanoma)?
**A.** 3.31 µM

**Q.** And the GI50 (BT-549 breast)?
**A.** 1670 nM

**Q.** What about the TGI (BT-549 breast) of the same compound?
**A.** 3.25 µM

**Q.** And the GI50 (MCF7 breast)?
**A.** 3.43 µM

**Q.** What about the TGI (MCF7 breast) of the same compound?
**A.** > 100 µM

**Q.** What about the GI50 (SF-539 CNS) of the same compound?
**A.** 1430 nM

**Q.** What about the TGI (SF-539 CNS) of the same compound?
**A.** 3.02 µM

**Q.** What about the GI50 (OVCAR-3 ovarian) of the same compound?
**A.** 3.13 µM

**Q.** And the TGI (OVCAR-3 ovarian)?
**A.** 7.21 µM

**Q.** And the GI50 (PC-3 prostate)?
**A.** 3.57 µM

**Q.** And the TGI (PC-3 prostate)?
**A.** 11.9 µM

**Q.** What about the GI50 (SK-OV-3 ovarian) of the same compound?
**A.** 3.33 µM

**Q.** What about the TGI (SK-OV-3 ovarian) of the same compound?
**A.** > 100 µM

**Q.** What about the GI50 (U251 glioblastoma) of the same compound?
**A.** 2020 nM

**Q.** What about the TGI (U251 glioblastoma) of the same compound?
**A.** 4.06 µM

**Q.** And the GI50 (SF-268 CNS)?
**A.** 3.37 µM

**Q.** What about the TGI (SF-268 CNS) of the same compound?
**A.** 13.2 µM

**Q.** What about the GI50 (SR leukemia) of the same compound?
**A.** 255 nM

**Q.** And the TGI (SR leukemia)?
**A.** 559 nM

**Q.** And the GI50 (SK-MEL-5 melanoma)?
**A.** 1700 nM

**Q.** And the TGI (SK-MEL-5 melanoma)?
**A.** 3.23 µM

**Q.** What about the GI50 (HS 578T breast) of the same compound?
**A.** 1890 nM

**Q.** And the TGI (HS 578T breast)?
**A.** 3.54 µM

**Q.** What about the GI50 (HCC-2998 colon) of the same compound?
**A.** 2970 nM

**Q.** What about the TGI (HCC-2998 colon) of the same compound?
**A.** 6.32 µM

**Q.** And the GI50 (HCT-116 colon)?
**A.** 2420 nM

**Q.** And the TGI (HCT-116 colon)?
**A.** 6 µM

**Q.** What about the GI50 (IGROV1 ovarian) of the same compound?
**A.** 3.06 µM

**Q.** And the TGI (IGROV1 ovarian)?
**A.** 11.6 µM
